Laboratory results: PubChem BioAssay AID504343 (Broad Institute, 2011)
Results filed as inconclusive are left out. The source made the active and inactive calls.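 The calls were made as follows: active = fitted curve reaches 10% of positive control caspase signal at or below top valid tested dose; inconclusive = flat fit at 30 to 70% activity, or unreliable fit; inactive = the rest.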

Tested on: HMC1-8 Mcl1-dependent cells, caspase-Glo luminescence, 4 h
Experiment: caspase activation in Mcl1-dependent HMC1-8 cells, dose response, selectivity assay for Bcl2-A1 inhibitor project, cell-based, caspase luminescence, dry powder, set 2 (AID 504343)
Details: not given
In the case of `C/C1=C/C(=O)O[C@@H]2C[C@@H](CC[C@H](C)/C=C\CC1)O[C@@](O)(C1CSC(=O)N1)C2` (some centres not stated), the AC10 is reported as > 35 µM (inactive). In the case of `O=[N+]([O-])c1cnc2ccccc2c1Sc1ccccc1`, the AC10 is reported as 25 µM. `Cn1c(=O)c([N+](=O)[O-])c(-n2cnc3ccccc32)c2ccccc21` showed an AC10 of 20 µM. For `Cc1ccc(Sc2c([N+](=O)[O-])cnc3ccccc23)cc1`, the AC10 was 25 µM.

Tested on: not listed separately
Experiment: as above
Details: HMC1-8 Mcl1-dependent cells, caspase-Glo luminescence, 4 h; at 35 µM (top of the series)
For `CCOCCCNc1c([N+](=O)[O-])c(=O)n(C)c2ccccc12`, the caspase activation was -2.94% (inactive). For `Cn1c(=O)c([N+](=O)[O-])c(Cl)c2ccccc21`, the caspase activation was -12.8% (inactive). For `CN1C(=O)C(C)(C)N(Cc2ccccc2)c2ccccc21`, the caspase activation was 9.6% (inactive). With `Cc1ccc(Nc2c([N+](=O)[O-])c(=O)n(C)c3ccccc23)cc1` the caspase activation was 10.1% (inactive). For `Cc1ccc(Sc2c([N+](=O)[O-])c(=O)n(C)c3ccccc23)cc1`, the caspase activation was 0.553% (inactive). In the case of `Cc1ccc(Nc2c([N+](=O)[O-])c(=O)oc3ccccc23)cc1`, the caspase activation is reported as 12.1% (inactive). In the case of `Cn1c(=O)c([N+](=O)[O-])c(Nc2ccc(Cl)cc2)c2ccccc21`, the caspase activation is reported as 1.67% (inactive). In the case of `Cn1c(=O)c([N+](=O)[O-])c(Oc2ccccc2)c2ccccc21`, the caspase activation is reported as 2.58% (inactive).
